Test: Biodistribution of CorA to organs/tissues of CD-1 mice (LC-MS/MS)
Assay type: in vivo
Protocol: For pharmacokinetic (PK) experiments, 6–8-week-old outbred female CD-1 mice (Charles River, Germany) were used. CorA was dissolved in PEG400/phosphate-buffered saline (PBS) (80:20 (v/v)). CorA was administered once daily at 60 mg/kg intraperitoneally (IP), 100 mg/kg IP, 100 mg/kg subcutaneously (SC) and 100 mg/kg perorally (PO). Moreover, CorA was administered at 30 mg/kg IP twice a day (BID) (administration time points t = 0 and 6 h after first dose). Animals (n = 3 per time point) receiving either 60 mg/kg IP or 100 mg/kg IP were euthanized at 10, 15, 30, 60 and 180 min after administration. Animals (n = 3 per time point) receiving 30 mg/kg IP BID were euthanized at 0.167, 0.25, 0.5, 1, 3, 5.75, 6.167, 6.25, 6.5, 7 and 9 h after first administration. Animals (n = 3 per time point) receiving 100 mg/kg SC or 100 mg/kg PO were euthanized at 0.25, 1, 2, 4 and 8 h after administration. At every time point blood was removed from the heart, collected into tubes coated with 0.5 M ethylenediaminetetraacetic acid (EDTA), immediately spun down at 15,870× g for 10 min at 4 °C and the resultant plasma transferred into a new tube. Furthermore, at every time point heart, lung, brain, liver, spleen, kidneys, and thigh muscles were removed and frozen in liquid nitrogen. For animals receiving 100 mg/kg PO also rectum (without feces), pharynx, skin, vaginal tract, subcutaneous fat tissue, visceral fat tissue and tibiae were removed and frozen in liquid nitrogen. Before removing the vaginal tract, a vaginal flush was performed.
Caffeine was used as an internal standard.

Q: For `C/C=C/C/C=C(\C)C(O)CC/C(C)=C/C=C(\C)C(=O)c1c(O)cc([C@H](C)CC/C=C/NC(=O)OC)oc1=O` (some centres unmarked) [CorA, Corallopyronin A], which “CorA in vaginal flush” value (100 mg/kg PO) is on record?
A: not found

Q: What about the “time initial peak concentrations in tissue are above the MIC” value (IP dosing) of the same compound?
A: 2 to 3 h

Q: And the AUC (brain, 30 mg/kg IP)?
A: 0.05 µg·h/g

Q: And the AUC (brain, 60 mg/kg IP)?
A: 0.10 µg·h/g

Q: What about the AUC (brain, 100 mg/kg IP) of the same compound?
A: 0.10 µg·h/g

Q: What about the AUC (brain, 100 mg/kg SC) of the same compound?
A: 0.24 µg·h/g

Q: What about the “time tissue concentration exceeds the in vitro MIC against MRSA” value (female, CD-1, mouse, in vivo, sc, 100 mg/kg) of the same compound?
A: more than 9 h

Q: And the Cmax (female, CD-1, mouse, thigh muscle, thigh, 30 mg/kg IP)?
A: 100 ng/g

Q: What about the Cmax (female, CD-1, mouse, thigh muscle, thigh, 60 mg/kg IP) of the same compound?
A: 300 ng/g

Q: What about the Cmax (female, CD-1, mouse, thigh muscle, thigh, 100 mg/kg IP) of the same compound?
A: 700 ng/g

Q: And the Tmax (female, CD-1, mouse, 100 mg/kg PO, thigh, heart, kidney, spleen, lung, liver, fat, rectum, pharynx, vaginal tract, skin, tibia, read-out: time of peak concentration in the investigated tissues)?
A: 15 to 30 min

Q: And the Cmax (female, CD-1, mouse, brain, 30 mg/kg IP)?
A: 40 ng/g

Q: What about the Cmax (female, CD-1, mouse, brain, 60 mg/kg IP) of the same compound?
A: 70 ng/g

Q: What about the Cmax (female, CD-1, mouse, brain, 100 mg/kg IP) of the same compound?
A: 100 ng/g

Q: What about the Cmax (female, CD-1, mouse, brain, 100 mg/kg SC) of the same compound?
A: 150 ng/g

Q: And the Cmax (female, CD-1, mouse, heart, 30 mg/kg IP)?
A: 1100 ng/g

Q: And the Cmax (female, CD-1, mouse, heart, 60 mg/kg IP)?
A: 1800 ng/g

Q: What about the Cmax (female, CD-1, mouse, heart, 100 mg/kg IP) of the same compound?
A: 3100 ng/g

Q: And the Cmax (female, CD-1, mouse, heart, 100 mg/kg SC)?
A: 1480 ng/g

Q: What about the Cmax (female, CD-1, mouse, kidney, 30 mg/kg IP) of the same compound?
A: 700 ng/g

Q: What about the Cmax (female, CD-1, mouse, kidney, 60 mg/kg IP) of the same compound?
A: 1200 ng/g

Q: What about the Cmax (female, CD-1, mouse, kidney, 100 mg/kg IP) of the same compound?
A: 1800 ng/g

Q: And the Cmax (female, CD-1, mouse, kidney, 100 mg/kg SC)?
A: 1760 ng/g

Q: And the Cmax (female, CD-1, mouse, liver, 30 mg/kg IP)?
A: 310 ng/g

Q: What about the Cmax (female, CD-1, mouse, liver, 60 mg/kg IP) of the same compound?
A: 430 ng/g

Q: What about the Cmax (female, CD-1, mouse, liver, 100 mg/kg IP) of the same compound?
A: 610 ng/g

Q: And the Cmax (female, CD-1, mouse, liver, 100 mg/kg SC)?
A: 2300 ng/g

Q: What about the Cmax (female, CD-1, mouse, lung, 30 mg/kg IP) of the same compound?
A: 1500 ng/g

Q: What about the Cmax (female, CD-1, mouse, lung, 60 mg/kg IP) of the same compound?
A: 3100 ng/g

Q: And the Cmax (female, CD-1, mouse, lung, 100 mg/kg IP)?
A: 4800 ng/g

Q: And the Cmax (female, CD-1, mouse, lung, 100 mg/kg SC)?
A: 1270 ng/g

Q: What about the Cmax (female, CD-1, mouse, spleen, 30 mg/kg IP) of the same compound?
A: 1400 ng/g

Q: What about the Cmax (female, CD-1, mouse, spleen, 60 mg/kg IP) of the same compound?
A: 2100 ng/g

Q: What about the Cmax (female, CD-1, mouse, spleen, 100 mg/kg IP) of the same compound?
A: 4900 ng/g

Q: What about the Cmax (female, CD-1, mouse, spleen, 100 mg/kg SC) of the same compound?
A: 600 ng/g

Q: And the AUC (heart, 30 mg/kg IP)?
A: 1.08 µg·h/g

Q: What about the AUC (heart, 60 mg/kg IP) of the same compound?
A: 1.83 µg·h/g

Q: What about the AUC (heart, 100 mg/kg IP) of the same compound?
A: 2.10 µg·h/g

Q: What about the AUC (heart, 100 mg/kg SC) of the same compound?
A: 3.53 µg·h/g

Q: What about the AUC (kidney, 30 mg/kg IP) of the same compound?
A: 0.49 µg·h/g

Q: What about the AUC (kidney, 60 mg/kg IP) of the same compound?
A: 0.95 µg·h/g

Q: And the AUC (kidney, 100 mg/kg IP)?
A: 1.01 µg·h/g

Q: What about the AUC (kidney, 100 mg/kg SC) of the same compound?
A: 5.61 µg·h/g

Q: What about the AUC (liver, 30 mg/kg IP) of the same compound?
A: 0.40 µg·h/g

Q: And the AUC (liver, 60 mg/kg IP)?
A: 0.57 µg·h/g

Q: What about the AUC (liver, 100 mg/kg IP) of the same compound?
A: 0.59 µg·h/g

Q: What about the AUC (liver, 100 mg/kg SC) of the same compound?
A: 12.44 µg·h/g

Q: What about the AUC (lung, 30 mg/kg IP) of the same compound?
A: 1.2 µg·h/g

Q: And the AUC (lung, 60 mg/kg IP)?
A: 3.56 µg·h/g

Q: And the AUC (lung, 100 mg/kg IP)?
A: 2.67 µg·h/g

Q: And the AUC (lung, 100 mg/kg SC)?
A: 3.85 µg·h/g

Q: What about the “time CorA levels above the MIC” value (lung, 100 mg/kg SC) of the same compound?
A: ~ 4 h

Q: And the “time CorA levels exceed the in vitro MIC” value (lung, all three doses administered IP (30, 60, 100 mg/kg))?
A: around 3 h

Q: And the AUC (spleen, 30 mg/kg IP)?
A: 0.77 µg·h/g

Q: And the AUC (spleen, 60 mg/kg IP)?
A: 1.34 µg·h/g

Q: And the AUC (spleen, 100 mg/kg IP)?
A: 2.55 µg·h/g

Q: What about the AUC (spleen, 100 mg/kg SC) of the same compound?
A: 1.4 µg·h/g

Q: And the AUC (thigh, 30 mg/kg IP)?
A: 0.19 µg·h/g

Q: And the “time CorA levels exceed the MIC” value (thigh, 30 mg/kg IP)?
A: about one hour

Q: What about the AUC (thigh, 60 mg/kg IP) of the same compound?
A: 0.49 µg·h/g

Q: What about the “time CorA levels above the MIC” value (thigh, 60 mg/kg IP) of the same compound?
A: around 3 h

Q: And the AUC (thigh, 100 mg/kg IP)?
A: 0.60 µg·h/g

Q: What about the “time CorA levels above the MIC” value (thigh, 100 mg/kg IP) of the same compound?
A: around 3 h

Q: What about the “peak concentrations in thigh above the in vitro determined MIC” value (thigh, 100 mg/kg IP, MIC 0.125 µg/mL) of the same compound?
A: 3–5 ×

Q: And the “CorA levels in thigh tissue” value (thigh, 100 mg/kg SC)?
A: no CorA levels were detected
